Target: D(1A) dopamine receptor (Homo sapiens, UniProt P21728)
Assay: Positive allosteric modulator activity at human dopamine D1 receptor expressed in HEK293 cells assessed as potentiation of dopamine-induced cAMP accumulation by measuring dopamine EC50 at 50 uM measured after 30 mins by HitHunter assay (Rvb = 214 nM)

Sequence of D(1A) dopamine receptor (P21728 whole entry): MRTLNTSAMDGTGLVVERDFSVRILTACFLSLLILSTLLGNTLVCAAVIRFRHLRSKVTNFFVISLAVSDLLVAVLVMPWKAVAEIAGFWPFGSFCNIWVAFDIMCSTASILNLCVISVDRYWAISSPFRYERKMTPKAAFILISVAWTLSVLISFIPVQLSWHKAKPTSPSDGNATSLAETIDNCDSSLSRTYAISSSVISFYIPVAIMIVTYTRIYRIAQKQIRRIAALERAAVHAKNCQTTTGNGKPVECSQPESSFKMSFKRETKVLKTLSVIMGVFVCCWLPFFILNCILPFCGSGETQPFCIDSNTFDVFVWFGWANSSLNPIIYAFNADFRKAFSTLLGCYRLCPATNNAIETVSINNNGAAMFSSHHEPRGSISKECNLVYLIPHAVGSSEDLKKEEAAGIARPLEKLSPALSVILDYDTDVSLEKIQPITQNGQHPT

EC50	Structure (SMILES)
123 nM	Cn1c2ccccc2c(=O)c2c(=O)n(-c3ccccc3)c(C3CCCCC3)nc21

Target: D(1B) dopamine receptor (Homo sapiens, UniProt P21918)
Assay: Positive allosteric modulator activity at human dopamine D5 receptor expressed in CHO-K1 cells assessed as potentiation of dopamine-induced beta-arrestin2 recruitment by measuring dopamine EC50 at 50 uM incubated for 90 mins by PathHunter assay (Rvb = 81.7 nM)

Sequence of D(1B) dopamine receptor (P21918 whole entry): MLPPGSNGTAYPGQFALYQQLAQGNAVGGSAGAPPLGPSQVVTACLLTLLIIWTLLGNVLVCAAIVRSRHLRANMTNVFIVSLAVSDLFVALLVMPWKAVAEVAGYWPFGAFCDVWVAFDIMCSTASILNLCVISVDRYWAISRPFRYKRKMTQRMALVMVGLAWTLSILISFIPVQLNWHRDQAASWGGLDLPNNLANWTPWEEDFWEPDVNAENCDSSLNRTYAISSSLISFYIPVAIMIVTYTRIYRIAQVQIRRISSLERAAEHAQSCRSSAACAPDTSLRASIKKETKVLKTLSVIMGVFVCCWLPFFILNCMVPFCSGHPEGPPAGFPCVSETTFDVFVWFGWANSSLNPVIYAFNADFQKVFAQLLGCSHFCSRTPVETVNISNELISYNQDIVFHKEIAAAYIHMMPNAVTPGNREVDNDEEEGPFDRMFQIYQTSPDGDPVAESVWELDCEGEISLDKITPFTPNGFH

Structure (SMILES)	EC50
Cn1c2ccccc2c(=O)c2c(=O)n(-c3ccccc3)c(C3CC3)nc21	95 nM
COc1ccc(-n2c(CC3CCCCC3)nc3c(c(=O)c4ccccc4n3C)c2=O)cc1Cl	94 nM
Cn1c2ccccc2c(=O)c2c(=O)n(-c3cccc(Cl)c3)c(CC3CCCCC3)nc21	95 nM
Cn1c2ccccc2c(=O)c2c(=O)n(-c3ccc(Cl)cc3)c(CC3CCCCC3)nc21	74 nM
Cc1ccc(-n2c(CC3CCCCC3)nc3c(c(=O)c4ccccc4n3C)c2=O)cc1	168 nM
Cn1c2ccccc2c(=O)c2c(=O)n(-c3cccc(Cl)c3)c(C3CCCC3)nc21	43 nM
Cc1ccc(-n2c(C3CCCC3)nc3c(c(=O)c4ccccc4n3C)c2=O)cc1	27 nM
Cn1c2ccccc2c(=O)c2c(=O)n(-c3ccccc3)c(C3CCCC3)nc21	80 nM
COc1ccc(-n2c(CC(C)C)nc3c(c(=O)c4ccccc4n3C)c2=O)cc1Cl	58 nM
COc1ccc(-n2c(CC(C)C)nc3c(c(=O)c4ccccc4n3C)c2=O)cc1	34 nM
CC(C)Cc1nc2c(c(=O)c3ccccc3n2C)c(=O)n1-c1cccc(Cl)c1	63 nM
CC(C)Cc1nc2c(c(=O)c3ccccc3n2C)c(=O)n1-c1ccc(Cl)cc1	56 nM
Cc1ccc(-n2c(CC(C)C)nc3c(c(=O)c4ccccc4n3C)c2=O)cc1	44 nM
CC(C)Cc1nc2c(c(=O)c3ccccc3n2C)c(=O)n1-c1ccccc1	103 nM
COc1ccc(-n2c(C3CCCCC3)nc3c(c(=O)c4ccccc4n3C)c2=O)cc1Cl	59 nM
Cn1c2ccccc2c(=O)c2c(=O)n(-c3cccc(Cl)c3)c(C3CCCCC3)nc21	80 nM
Cc1ccc(-n2c(C3CCCCC3)nc3c(c(=O)c4ccccc4n3C)c2=O)cc1	27 nM

More lines, in order of falling EC50, values ahead:

EC50	Structure (SMILES)
82 nM	Cn1c2ccccc2c(=O)c2c(=O)[nH]c(C3CCCC3)nc21
62 nM	COc1ccc(-n2c(C3CCCCC3)nc3c(c(=O)c4ccccc4n3C)c2=O)cc1
49 nM	Cn1c2ccccc2c(=O)c2c(=O)n(-c3ccccc3)c(CC3CCCCC3)nc21
44 nM	Cn1c2ccccc2c(=O)c2c(=O)n(-c3ccc(Cl)cc3)c(C3CCCCC3)nc21
43 nM	Cn1c2ccccc2c(=O)c2c(=O)n(-c3ccc(Cl)cc3)c(C3CCCC3)nc21
29 nM	Cn1c2ccccc2c(=O)c2c(=O)n(-c3ccccc3)c(C3CCCCC3)nc21
28 nM	COc1ccc(-n2c(C3CCCC3)nc3c(c(=O)c4ccccc4n3C)c2=O)cc1Cl
25 nM	COc1ccc(-n2c(C3CCCC3)nc3c(c(=O)c4ccccc4n3C)c2=O)cc1

Reference: BindingDB's records for doi:10.1016/j.bmcl.2020.127696 (National Institutes of Health, 2021)
